Holding throughout (assay type): functional
Assay [1] is described as follows: Cytotoxicity against human MOLT4 cells assessed as cell growth at 10^-4 M after 48 hrs by SRB assay. The following applies: MOLT-4, 48 h, read-out: Activity.
Assay [2] is described as follows: Cytotoxicity against human LOXIMVI cells assessed as cell growth at 10^-4 M after 48 hrs by SRB assay. The following applies: LOX IMVI, read-out: Activity.
In assay [3] the test system is KM12. Kind of assay: Cytotoxicity against human KM12 cells assessed as cell growth at 10^-7 M after 48 hrs by SRB assay. Conditions: KM12, 48 h, read-out: Activity.
The subject of assay [4] is HT-29. Briefly: Cytotoxicity against human HT-29 cells assessed as cell growth at 10^-6 M after 48 hrs by SRB assay. Conditions: HT-29, 48 h, read-out: Activity.
Assay [5] in a line: Cytotoxicity against human BT549 cells assessed as cell growth at 10^-4 M after 48 hrs by SRB assay. The following applies: BT-549, 48 h, read-out: Activity.
Assay [6] is described as follows: Cytotoxicity against human TK10 cells assessed as cell growth at 10^-4 M after 48 hrs by SRB assay. Conditions: TK-10, 48 h, read-out: Activity.
Assay [7] is described as follows: Cytotoxicity against human SF295 cells assessed as cell growth at 10^-7 M after 48 hrs by SRB assay. Conditions: SF-295, 48 h, read-out: Activity.
A further assay relates to U-251. Kind of assay: Cytotoxicity against human U251 cells assessed as cell growth at 10^-7 M after 48 hrs by SRB assay. Conditions: U-251, 48 h, read-out: Activity.
Assay [8] is described as follows: Cytotoxicity against human SW620 cells assessed as cell growth at 10^-7 M after 48 hrs by SRB assay. The following applies: SW-620, 48 h, read-out: Activity.
Another assay deals with SK-MEL-28. Kind of assay: Cytotoxicity against human SK-MEL-28 cells assessed as cell growth at 10^-4 M after 48 hrs by SRB assay. The following applies: SK-MEL-28, 48 h, read-out: Activity.
For another assay, the system named is Malme-3M. Kind of assay: Cytotoxicity against human MALME-3M cells assessed as cell growth at 10^-5 M after 48 hrs by SRB assay. Conditions: read-out: Activity.
Assay [9] in a line: Cytotoxicity against human NCI-ADR-RES cells assessed as cell growth at 10^-7 M after 48 hrs by SRB assay. The following applies: read-out: Activity.
The nature of assay [10]: Cytotoxicity against human UACC257 cells assessed as cell growth at 10^-7 M after 48 hrs by SRB assay. The following applies: UACC-257, 48 h, read-out: Activity.
Another assay relates to M14. Kind of assay: Cytotoxicity against human M14 cells assessed as cell growth at 10^-8 M after 48 hrs by SRB assay. Conditions: M14, 48 h, read-out: Activity.
Assay [11] relates to SR. Kind of assay: Cytotoxicity against human SR cells assessed as cell growth at 10^-6 M after 48 hrs by SRB assay. The following applies: read-out: Activity.
The test system of assay [12] is HT-29. Briefly: Cytotoxicity against human HT-29 cells assessed as cell growth at 10^-5 M after 48 hrs by SRB assay. The following applies: HT-29, 48 h, read-out: Activity.
A short description of assay [13]: Cytotoxicity against human UACC62 cells assessed as cell growth at 10^-8 M after 48 hrs by SRB assay. The following applies: UACC-62, 48 h, read-out: Activity.
Assay [14] in a line: Cytotoxicity against human SKOV3 cells assessed as cell growth at 10^-4 M after 48 hrs by SRB assay. The following applies: SK-OV-3, 48 h, read-out: Activity.
Assay [15] is described as follows: Cytotoxicity against human OVCAR4 cells assessed as cell growth at 10^-6 M after 48 hrs by SRB assay. Conditions: OVCAR-4, 48 h, read-out: Activity.
A short description of assay [16]: Cytotoxicity against human HCC2998 cells assessed as cell growth at 10^-5 M after 48 hrs by SRB assay. Conditions: HCC 2998, 48 h, read-out: Activity.
Assay [17] in a line: Cytotoxicity against human SF295 cells assessed as cell growth at 10^-6 M after 48 hrs by SRB assay. The following applies: SF-295, 48 h, read-out: Activity.
Assay [18] in a line: Cytotoxicity against human TK10 cells assessed as cell growth at 10^-6 M after 48 hrs by SRB assay. Conditions: TK-10, 48 h, read-out: Activity.
Assay [19] in a line: Cytotoxicity against human SF295 cells assessed as cell growth at 5 nM after 48 hrs by SRB assay. The following applies: SF-295, 48 h, read-out: Activity.
In assay [20] the test system is HT-29. Kind of assay: Cytotoxicity against human HT-29 cells assessed as cell growth at 5 uM after 48 hrs by SRB assay. The following applies: HT-29, 48 h, read-out: Activity.
Assay [21] concerns MDA-MB-468. Briefly: Cytotoxicity against human MDA-MB-468 cells assessed as cell growth at 50 nM after 48 hrs by SRB assay. The following applies: MDA-MB-468, 48 h, read-out: Activity.
A short description of assay [22]: Cytotoxicity against human SKOV3 cells assessed as cell growth at 50 nM after 48 hrs by SRB assay. The following applies: SK-OV-3, 48 h, read-out: Activity.
Assay [23] has as its system MDA-MB-231. Kind of assay: Cytotoxicity against human MDA-MB-231 cells assessed as cell growth at 50 uM after 48 hrs by SRB assay. The following applies: MDA-MB-231, 48 h, read-out: Activity.
Another assay has as its system K562. Briefly: Cytotoxicity against human K562 cells assessed as cell growth at 5 uM after 48 hrs by SRB assay. The following applies: K562, 48 h, read-out: Activity.
Assay [24] is described as follows: Cytotoxicity against human SKOV3 cells assessed as cell growth at 5 uM after 48 hrs by SRB assay. Conditions: SK-OV-3, 48 h, read-out: Activity.
A short description of assay [25]: Cytotoxicity against human OVCAR5 cells assessed as cell growth at 0.5 uM after 48 hrs by SRB assay. Conditions: OVCAR-5, 48 h, read-out: Activity.
Another assay relates to NCI-H226. Kind of assay: Cytotoxicity against human NCI-H226 cells assessed as cell growth at 0.5 uM after 48 hrs by SRB assay. The following applies: NCI-H226, 48 h, read-out: Activity.
A further assay has as its system A498. Briefly: Cytotoxicity against human A498 cells assessed as cell growth at 0.5 uM after 48 hrs by SRB assay. Conditions: A498, 48 h, read-out: Activity.
Assay [26] is described as follows: Cytotoxicity against human TK10 cells assessed as cell growth at 5 uM after 48 hrs by SRB assay. Conditions: TK-10, 48 h, read-out: Activity.
The nature of assay [27]: Cytotoxicity against human SF295 cells assessed as cell growth at 5 uM after 48 hrs by SRB assay. Conditions: SF-295, 48 h, read-out: Activity.
Assay [28] is described as follows: Cytotoxicity against human OVCAR4 cells assessed as cell growth at 5 nM after 48 hrs by SRB assay. Conditions: OVCAR-4, 48 h, read-out: Activity.
The subject of assay [29] is MDA-MB-231. Kind of assay: Cytotoxicity against human MDA-MB-231 cells assessed as cell growth at 5 uM after 48 hrs by SRB assay. Conditions: MDA-MB-231, 48 h, read-out: Activity.
In a further assay the test system is SN12C. Kind of assay: Cytotoxicity against human SN12C cells assessed as cell growth at 50 uM after 48 hrs by SRB assay. Conditions: read-out: Activity.
Assay [30] has as its system MDA-MB-468. Briefly: Cytotoxicity against human MDA-MB-468 cells assessed as cell growth at 5 uM after 48 hrs by SRB assay. Conditions: MDA-MB-468, 48 h, read-out: Activity.
Assay [31] in a line: Cytotoxicity against human HCT116 cells assessed as cell growth at 0.5 uM after 48 hrs by SRB assay. The following applies: HCT-116, 48 h, read-out: Activity.
The next assay deals with 786-0. Kind of assay: Cytotoxicity against human 786-0 cells assessed as cell growth at 50 uM after 48 hrs by SRB assay. Conditions: 786-0, 48 h, read-out: Activity.
For assay [32], the system named is KM12. Kind of assay: Cytotoxicity against human KM12 cells assessed as cell growth at 50 uM after 48 hrs by SRB assay. Conditions: KM12, 48 h, read-out: Activity.
In assay [33] the test system is SR. Briefly: Cytotoxicity against human SR cells assessed as cell growth at 5 uM after 48 hrs by SRB assay. Conditions: read-out: Activity.
A short description of assay [34]: Cytotoxicity against human LOXIMVI cells assessed as cell growth at 0.5 uM after 48 hrs by SRB assay. The following applies: LOX IMVI, read-out: Activity.

As to `C/C(=C(/c1ccc(O)cc1)c1ccc(OCCN2CCCC2)cc1)c1ccccc1`, the growth at 100 µM was -61% in assay [1]; -93% in [2]; -100% in assay [5]; -100% in assay [6]; -93% in the assay with SK-MEL-28; -98% in [14]. Also, the growth at 0.1 µM with KM12 [3] came out at 100%; in assay [7] it was 94%; with U-251, 100%; in assay [8], 103%; in assay [9], 97%; in assay [10], 102%. Also, the growth at 1 µM with HT-29 [4] came to 67%; in the assay with SR [11], 80%; in assay [15], 89%; in assay [17], 94%; in assay [18], 95%. Further, the growth at 10 µM in the assay with Malme-3M was -77%; with HT-29 [12], -66%; in [16], -25%. Besides, the results for the growth at 0.01 µM (in the assay on M14; in assay [13]) were 92% and 99%, respectively.
Take `CCCCCCCCCC(=O)Oc1ccc(/C(=C(/C)c2ccccc2)c2ccc(OCCN3CCCC3)cc2)cc1`: the growth at 0.005 µM was determined as 94% in [19] and 100% in assay [28]. The growth at 5 µM with HT-29 [20] was 58%; in the assay with K562, 74%; in [24], 78%; in [26] it was 95%; in assay [27] it was 86%; with MDA-MB-231 [29] it was 102%. Further, the growth at 5 µM is 76% in the assay with MDA-MB-468 [30] and 90% with SR [33]. The growth at 0.05 µM was determined as 100% in the assay on MDA-MB-468 [21] and 90% in assay [22]. Also, the growth at 50 µM in the assay on MDA-MB-231 [23] was -67%; with SN12C, -76%; in the assay with 786-0, -84%; with KM12 [32], -86%. The growth at 0.5 µM in assay [25] is 77%; in the assay with NCI-H226, 100%; in the assay on A498 it was 49%; in assay [31], 71%; in assay [34], 62%.

For the origin of these results see ChEMBL document CHEMBL3774317, “Design and synthesis of novel tamoxifen analogues that avoid CYP2D6 metabolism” (Eur J Med Chem, 2016).
